Literature values, collected in patent US20060094692A1, “Pharmaceutical formulations of camptothecins and process for making same” (BioNumerik Pharmaceuticals, Inc., priority 2004, published 2006).

Settings: fraction of the potency of the lactone form

## CC[C@@](O)(C(=O)O)c1cc2n(c(=O)c1CO)Cc1cc3ccccc3nc1-2 [carboxylate form of CPT]
  antitumor potency relative to the lactone form of CPT: approximately one-tenth or less
